Results from US8124121B2, “Flavors, flavor modifiers, tastants, taste enhancers, umami or sweet tastants, and/or enhancers and use thereof” (Senomyx, Inc., priority 2003, dated 2012).
Values belong to the compound of their own block, whether it stands above or below them.

Experiments:
HEK293-Gα15 cells = assay: FLIPR assay on HEK293-Gα15 cells not expressing the human sweet receptor (receptor dependency control); format: cell-based
Text: In order to determine the dependency of hT1R2/hT1R3 for the cell response to different stimuli, selected compounds were subjected to a similar analysis on HEK293-Gα15 cells (not expressing the human sweet receptor).

[1] = system: savory taste, human panelists; assay: Umami/savory flavor experiments using human panelists (trained panel, difference from reference); format: in vivo; conditions: 12 mM MSG + cpd vs reference 12 mM MSG + 100 μM IMP
Method: General Panelist Selection: Basic screening of sensory taste testers: Potential panelists were tested for their abilities to rank and rate intensities of solutions representing the five basic tastes. Panelists ranked and rated intensity of five different concentrations of each of the five following compounds: sucrose (sweet), sodium chloride (salty), citric acid (sour), caffeine (bitter), and monosodium glutamate (savory). In order to be selected for participation in testing, panelists needed to correctly rank and rate samples for intensity, with a reasonable number of errors
Preliminary Taste Tests: The panelists selected in the above procedure were deemed qualified for performing Preliminary Taste Testing procedures. The preliminary taste tests are used to evaluate new compounds for intensity of basic tastes and off-tastes. A small group of panelists (n=5) taste approximately 5 concentrations of the compound (range typically between 1-100 μM, in half-log cycles, e.g., 1, 3, 10, 30, and 100 μM) in water and in a solution of 12 mM MSG to evaluate enhancement. Panelists rate the five basic tastes (sweet, salty, sour, bitter, and savory) as well as off-tastes (such as chemical, metallic, sulfur) on a labeled magnitude scale. Samples are served in 10 mL portions at room temperature. The purpose of the test is to determine the highest concentration at which there is no objectionable off-taste, and determine if obvious savory taste or enhancement of savory taste exists at any of the concentrations tested.
Trained Panelist Selection: A trained expert panel was used to further evaluate compounds that had been tested with the preliminary taste test.
Panelists for the trained panel were selected from the larger group of qualifying taste panelists. Panelists were further trained on savory taste by ranking and rating experiments using MSG and IMP combinations. Panelists completed a series of ranking, rating, and difference from reference tests with savory solutions. In ranking and rating experiments, panelists evaluated easy MSG concentrations (0, 6, 18, 36 mM) and more difficult MSG concentrations (3, 6, 12, 18 mM MSG) in water.
Compound testing with Trained Panel: Compounds tested by the trained panel were evaluated in difference from reference experiments. […] Test samples were solutions with varying amounts of MSG, IMP, and the compound.
Compounds were tested against the reference in samples with and without 12 mM MSG. All samples were presented in 10 ml volumes at room temperature. Two sessions were completed for each compound tested to evaluate panel reproducibility.

un-induced I-17 cells = assay: FLIPR assay on un-induced I-17 cells (receptor dependency control); format: cell-based; conditions: I-17 cells not induced with mifepristone; compounds presented at 10 μM
Method: In order to determine the dependency of hT1R1/hT1R3 for the cell response to different stimuli, selected compounds were subjected to a similar analysis on I-17 cells that had not been induced for receptor expression with mifepristone (designated as un-induced I-17 cells). […] Compounds were presented to un-induced umami cells at […]—or three times the maximum stimulation used in the dose-response analysis.

Structure (SMILES): O=C(CO)[C@@H](O)[C@H](O)[C@H](O)CO [D-Fructose]
- functional response in the FLIPR assay using HEK293-Gα15 cells (HEK293-Gα15 cells): do not show any functional response

- melting point: 116 to 117 °C
Structure (SMILES): COc1cc(C)ccc1CNC(=O)C(=O)NCCc1ccc(C)cn1 [Example 157, N^1-(2-methoxy-4-methylbenzyl)-N^2-(2-(5-methylpyridin-2-yl)ethyl)oxalamide]
- Taste Data: concentration of cpd with 12 mM MSG that is as strong as 12 mM MSG + 100 μM IMP [1]: 12 mM MSG + 0.3 μM cpd as strong as

Structure (SMILES): N[C@@H](CCC(=O)O)C(=O)[O-].[Na+] [monosodium glutamate]
- functional response in the FLIPR assay using un-induced umami cells (un-induced I-17 cells): do not show any functional response
